# According to patent US20060280723A1 (priority 2003, published 2006):
# Where two headings read alike, the source gives them in different places.
# Tests used:
# [1] = test system: SARS-HCoV 2003VA2774; type: cell-based, SARS human coronavirus (SARS-HCoV)
# [2] = test system: Vero E6 cells; experiment: Cytotoxicity on Vero E6 cells without viral challenge; type: cell-based, African Green Monkey; conditions: three days, inverted microscope
# Description: To determine cytotoxicity, 100 microlitres of serial 10-fold dilutions of each treatment were incubated with 100 microlitres of Vero E6 cells giving a final cell count of 20,000 cells per well in a 96-well plate, without viral challenge.
# [3] = test system: SARS-HCoV; conditions: literature; cited from earlier work
# [4] = test system: SARS-HCoV; conditions: Lee et al., 2003 and Poutanen et al.; cited from earlier work
# [5] = test system: Semliki Forest Virus; experiment: Protection of Vero E6 cells from Semliki Forest Virus cytopathic effect (crystal violet); type: cell-based, Semliki Forest Virus (SFV)
# Description: Vero E6 cells were seeded in 96-well plate, at a density of 10000 cells per well. […] Media was removed from cells, and cells were washed in 1× PBS, then fixed for 10 minutes at room temperature in 4% paraformaldehyde in PBS. Paraformaldehyde was removed and cells were stained with 0.2% crystal violet in 2% ethanol for 10 minutes at room temperature. Stained plates were washed and degree of colouration was quantified at 630 nm using an ELISA reader. Triplicate data is presented in graph format (FIG. 2).
# [6] = test system: SARS-HCoV, strain Frankfurt-1
# [7] = test system: Vero E6 cells
# [8] = test system: 'common cold' coronaviruses; conditions: laboratory tests; cited from earlier work
# [9] = 10^4 pfu/well, MOI 0.5, Vero E6 cells
molecule,measurement,setting,value
NC(=O)c1ncn([C@@H]2O[C@H](CO)[C@@H](O)[C@H]2O)n1 [Ribavirin],CIA100 (reached: Yes),[1]; [9],Yes
same,Concentration at which complete cytopathic effect,[1]; [9],"5,000 μg/ml"
same,Inhibition of cytopathic effect,"[1]; cytopathic endpoint assay, Vero E6 cells",inhibitory activity at all viral titres
same,Inhibition of cytopathic effect,"[1]; high viral challenge 10^4 pfu/well, MOI 0.5",Complete inhibition
same,CIA100 (concentration inhibiting cytopathic effect in all four set-ups),[1]; virus load 100 pfu/well,500 µg/mL
same,CIA100 (concentration inhibiting cytopathic effect in all four set-ups),"[1]; virus load 1,000 pfu/well","5,000 μg/ml"
same,Cytotoxicity at inhibitory concentration,[2],showed cytotoxicity
same,Efficacy against SARS-HCoV in vitro,[3],negative results
CCOC(=O)C1=C[C@@H](OC(CC)CC)[C@H](NC(C)=O)[C@@H](N)C1 [Oseltamivir],Therapeutic benefit in SARS-HCoV infection,[4],has not shown any therapeutic benefit
Intron A: recombinant alpha IFN product from Schering Plough (IFN-alpha 2b),Concentration up to which cells were not fully protected from SARS-HCoV infection,[1],> 100000 IU/ml
same,Inhibition of cytopathic effect,[1],did not show significant inhibition
same,Loss of protection,[5]; at 39 IU/ml,equivalent loss of protection
same,Degree of protection,[5]; at 625 IU/ml,same degree of protection
same,"IC50 Exp. Type 1, 10 TCID50",[6],>3.125 IU/ml
same,"IC50 Exp. Type 1, 100 TCID50",[6],>3.125 IU/ml
same,"IL50 Exp. Type 2, 10 TCID50",[6],>3.125 IU/ml
same,"IL50 Exp. Type 2, 100 TCID50",[6],>3.125 IU/ml
same,Tendency to increase baseline levels in the cytotoxicity assay,[7],no similar tendency
"Cystatin C: a protease inhibitor found in human blood (protein, UniProt P01034 27-146, looked up) Cystatin-C: SSPGKPPRLVGGPMDASVEEEGVRRALDFAVGEYNKASNDMYHSRALQVVRARKQIVAGVNYFLDVELGRTTCTKTQPNLDNCPFHDQPHLKRKAFCSFQIYAVPWQGTMTLSKSTCQDA",Replication of 'common cold' coronaviruses,[8],found to block replication
